Data on 13 compounds can be found in patent US20140057895A1, “INDAZOLE- AND PYRROLOPYRIDINE-DERIVATIVE AND PHARMACEUTICAL USE THEREOF” (priority 2011, published 2014).

Structures can show the parent of a compound that is named as a salt.

For assay [1], the target named is T1, 5-HT4 receptor (Cavia porcellus, UniProt O70528).
T1 construct: striatum was isolated which was cryopreserved at −80° C. until use; from tissue; host or cells: guinea pig (Slc-Hartley) striatum membranes
Put plainly: Test Example 1: Serotonin 4 (5-HT4) receptor binding assay, [3H]-GR113808, guinea pig striatum membranes (Table 96). As to conditions: Guinea pig 5-HT4 receptor binding assay, [3H]-GR113808, striatum membranes; mean value of each group. The procedure: The 5-HT4 receptor binding assay and preparations of receptor membrane preparations herein were carried out according to a method of Grossman et al. [see, British J. Pharmacol., (1993) 109, 618].
Slc-Hartley guinea pigs (body weight 300 g to 400 g) were decapitated to remove brain rapidly, and striatum was isolated which was cryopreserved at −80° C. until use. To the obtained tissues were added fifteen fold of Hepes buffer (50 mM, pH 7.4, 4° C.), and the mixture was homogenized by Teflon (trademark) homogenizer and centrifuged at 48,000×g (4° C.) for 15 minutes. To the resulting precipitate was added Hepes buffer (1 ml) to 30 mg by wet weight of tissues, and the mixture was suspended to give receptor membrane preparations.
To an assay tube were added 0.1 nM [^3H]-GR113808 {chemical name: [1-[2-(methylsulfonylamino)ethyl]-4-piperidinyl]methyl 1-methylindole-3-carboxylate}, receptor membrane preparations, and Hepes buffer (50 mM, pH 7.4, 4° C., 1 ml) containing test compounds or 30 μM serotonin; and the mixture was incubated at 37° C. for 30 minutes. On quenching the reaction, the mixture was rapidly filtered on whatman GF/B filter, which was presoaked in 0.1% polyethyleneimine for 1 hour, by using Brandel cell Harvester, and washed with ice-cooled 50 mM Tris-HCl (pH 7.7, 4 ml) three times. To the filter after filtration was added a liquid scintillator (Ecoscint), and then a radioactivity was determined by a liquid scintillation counter.
50% Inhibition concentrations (IC50) were determined from inhibition rates of test compounds to specific bindings which were obtained by subtracting nonspecific bindings from total binding amounts of [^3H]-GR113808.
(§1) In the following table, the compounds used in the test are shown in numbers which correspond to the Example numbers above where the preparations of the compounds are described.

Assay [2] deals with T2, human 5-HT4b receptor (Homo sapiens, UniProt Q13639).
T2 construct: expressed in transfected cells; host or cells: CHO cells (G418 selection)
Put plainly: Test Example 2: Serotonin 4 (5-HT4) receptor agonist activity assay, cAMP HTRF in CHO cells (Table 97). Format: cell-based. The following applies: cAMP in CHO cells expressing human 5-HT4b receptor, mean value; for Emax: 0.25 h, intrinsic activity, maximal activity of 5-HT defined as 100%, read-out: IA (%); for EC50: concentration showing 50% of IA. The procedure: The cAMP measurement test used herein was carried out by using CISBIO HTRF (trademark) cAMP Hirange kit according to the manufacturer's instructions attached therewith.
CHO cells expressing human 5-HT4b receptor were incubated in Medium 1 [DMEM/1% NEAA, 1% penicillin/streptomycin (P/S), 0.2 mg/mL GENETICIN (G418), 10% FBS] at 37° C. under 5% CO2 condition. Then, the cells were put into Medium 2 (DMEM/10000 cut FBS, G-418, P/S, NEAA) for 1 to 2 hours, and collected by treating with trypsin containing EDTA. The collected cells were suspended in Assay Buffer 1 [100 mM Hanks/HEPES buffer (pH 7.4)], the suspended cells were mixed with the testing compound on 384-well plates, and the cells were incubated at 31° C. for 15 minutes. To the cells were added cAMP-cryptate solution and cAMP-d2 solution, and they were incubated at room temperature for 1 hour. Then, time-resolved fluorescence was measured by En Vision (excitation wavelength: 330 nm, fluorescence wavelength: 620/665 nm). An intrinsic activity of the compound [IA (%)] and a concentration showing 50% of IA [EC50 (nM)] were calculated from the obtained results. In particular, the intrinsic activity (IA) was calculated on the basis of the maximal activity of 5-HT (measured from 10^−11 M to 10^−7 M) defined as 100%.
as §1

Assay [3] deals with scopolamine-induced cognitive impairment. Put plainly: Example 5: Y-maze test, scopolamine-induced cognitive impairment, single-agent administration (Table 101). As to conditions: p.o., scopolamine-treated, # = P<0.05 vs scopolamine group. The class given is in vivo, ddY mouse. An excerpt: Thus, scopolamine-induced cognitive impairment model, one of the AD-like model, has been used to predict pharmacodynamic signals of putative procognitive compounds, utilizing the acetylcholinesterase inhibitor donepezil for illustration (See, Citations 1 and 2). The present inventors investigated the effect of each compound on reversal of scopolamine-induced deficits in performance of Y-maze test in mice, and they also investigated adjunctive effect of compounds with donepezil on reversal of deficits induced by scopolamine and MK801 in mice.
Used animal: ddY mouse (SLC)
In the experiments, the mice were grouped in the same way using Stat Preclinica (Version 1.03295; Takumi Information Technology Inc.). The selected mice were divided into 5 to 7 groups of 7 to 12 mice using the “completely randomization design by the single variable” program (Analytical program version 1.0.7), with body weight on the testing day. After grouping, p values for Bartlett's test and ANOVA across all groups were greater than 0.2, indicating no significant difference in this parameter among the groups.
The required amount of each compound was weighed and put into a glass homogenizer. […]
The required amount of scopolamine and MK801 were weighed, and saline was added to it to give 0.3 mg/mL and 0.015 mg/mL solution, respectively.
90 Min before the test, the mice were orally administered each compound, donepezil, and vehicle (0.5% methyl cellulose, 10 mL/kg). After 60 min, memory impairment was induced by administering scopolamine (0.6 mg/kg, s.c.) with (co-administration) or without (mono-administration) MK801 (0.03 mg/kg, s.c.). The control group received saline (2 mL/kg, s.c.) rather than scopolamine and MK801.
The Y-maze used herein is a three-arm maze with equal angles between all arms. The mazefloor and walls were constructed from black acrylic resin. The mice were initially placed within one arm, and the sequence and number of arm entries were recorded manually for each mouse over an 8-min period.
Data were processed and analyzed with Microsoft® Office Excel 2003. The alternation behavior was defined as entries into all three arms on consecutive occasions. The percent alternation behavior in each animal was calculated using the following formula, and rounded to one decimal place.
Alternation behavior(%)=[actual alternation/(total arm entries−2)]×100
Restoration ratio of alternation behavior (%) in each animal was calculated using the following formula, and rounded to one decimal place.
Restoration ratio of alternation behavior in each animal (%)=y Alternation behavior in each animal (%)=x Mean of alternation behavior in vehicle-treated group (group No. 1) (%)=A Mean of alternation behavior in scopolamine-treated group (group No. 2) (%)=B
Data were expressed as the mean of the percent alternation behavior, the number of total arm entries and the restoration ratio of alternation behavior.
Values of Y-maze tests are expressed as mean of alternation behavior (n=7−12).
Alternation behaviors in the scopolamine-treated groups were compared to those in the control groups using Wilcoxon rank sum test (Stat preclinical; Version 1.03295; Takumi Information Technology Inc.) with a two-sided significance level of 0.05.
Restoration of alternation behavior was analyzed using Stat Preclinica. Alternation behaviors in the vehicle-treated group were compared to those in the test substance-treated groups using non-parametric Dunnett multiple comparison test (Analytical program version 1.0.2) with a two-sided significance level of 0.05.

T2 sequence (Q13639 whole entry): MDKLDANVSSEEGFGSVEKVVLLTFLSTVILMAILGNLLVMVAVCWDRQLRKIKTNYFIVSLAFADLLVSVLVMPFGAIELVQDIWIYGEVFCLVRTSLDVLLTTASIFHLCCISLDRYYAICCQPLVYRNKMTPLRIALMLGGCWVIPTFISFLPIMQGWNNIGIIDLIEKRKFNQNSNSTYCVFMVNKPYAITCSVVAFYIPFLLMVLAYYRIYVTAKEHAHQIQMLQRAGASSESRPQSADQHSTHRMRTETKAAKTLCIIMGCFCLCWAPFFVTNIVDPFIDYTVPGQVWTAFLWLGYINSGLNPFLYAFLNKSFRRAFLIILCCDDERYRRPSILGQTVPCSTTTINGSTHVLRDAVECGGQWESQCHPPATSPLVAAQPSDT
T1 sequence (O70528 whole entry): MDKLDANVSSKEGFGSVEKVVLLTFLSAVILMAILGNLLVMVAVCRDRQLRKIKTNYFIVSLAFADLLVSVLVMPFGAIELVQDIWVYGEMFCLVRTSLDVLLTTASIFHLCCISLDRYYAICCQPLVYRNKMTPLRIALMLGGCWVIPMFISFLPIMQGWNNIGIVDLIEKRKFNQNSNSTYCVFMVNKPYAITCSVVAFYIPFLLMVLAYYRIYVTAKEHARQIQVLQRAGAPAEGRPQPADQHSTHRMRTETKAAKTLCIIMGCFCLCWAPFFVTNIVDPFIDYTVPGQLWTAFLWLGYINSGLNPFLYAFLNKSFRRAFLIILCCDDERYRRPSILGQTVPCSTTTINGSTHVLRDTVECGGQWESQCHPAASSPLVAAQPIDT

Turning to `CCc1nn(-c2noc(C3CCN(CC4CCOCC4)CC3)n2)c2cc(F)ccc12` [Example 134, 3-ethyl-6-fluoro-1-{5-[1-(tetrahydro-2H-pyran-4-ylmethyl)piperidin-4-yl]-1,2,4-oxadiazol-3-yl}-1H-indazole], in assay [1], the IC50 came out at 24.2 nM. Besides, in assay [2], the Emax is 81% and the EC50 was found to be 12.1 nM.
The matching figures for `CCc1nn(-c2noc(C3CCN(C4CCOC4)CC3)n2)c2cc(F)ccc12` (stereo not drawn) [Example 138, 3-ethyl-6-fluoro-1-{5-[1-(tetrahydrofuran-3-yl)piperidin-4-yl]-1,2,4-oxadiazol-3-yl}-1H-indazole]: below 20 nM, 67% and 22.4 nM.
`CCc1nn(-c2noc(C3CCN(C(C)C)CC3)n2)c2cc(F)ccc12` [Example 143, 3-ethyl-6-fluoro-1-{5-[1-(propan-2-yl)piperidin-4-yl]-1,2,4-oxadiazol-3-yl}-1H-indazole] had an IC50 in assay [1] below 20 nM. For the same compound, in assay [2], the Emax turned out to be 81% and the EC50 worked out at 6 nM.
In assay [1], `CCc1nn(-c2noc(C3CCN(CC4CCN(C(=O)OC)CC4)CC3)n2)c2cc(F)ccc12` [Example 171, methyl 4-({4-[3-(3-ethyl-6-fluoro-1H-indazol-1-yl)-1,2,4-oxadiazol-5-yl]piperidin-1-yl}methyl)piperidine-1-carboxylate] registered an IC50 of 31.9 nM. Also, in assay [2], the Emax came out at 51% and the EC50 worked out at 30.8 nM.
As to `CCc1nn(-c2noc(C3CCN(C[C@@H]4CCCN4C(=O)OC)CC3)n2)c2ccccc12` [Example 178, methyl (2S)-2-({4-[3-(3-ethyl-1H-indazol-1-yl)-1,2,4-oxadiazol-5-yl]piperidin-1-yl}methyl)pyrrolidine-1-carboxylate], the IC50 in assay [1] is below 20 nM. Also, in assay [2], the Emax is 38% and the EC50 is 10.9 nM.
For `CCc1nn(-c2noc(C3CCN(C[C@@H]4CCCN4C(=O)OCCF)CC3)n2)c2c(F)cccc12` [Example 182, 2-fluoroethyl (2S)-2-({4-[3-(3-ethyl-7-fluoro-1H-indazol-1-yl)-1,2,4-oxadiazol-5-yl]piperidin-1-yl}methyl)pyrrolidine-1-carboxylate], in that order: below 20 nM, 38% and 4 nM.
As to `CCc1nn(-c2noc(C3CCN(C[C@@H]4CCN(C(=O)OCCF)C4)CC3)n2)c2ccccc12` [Example 195, 2-fluoroethyl (3S)-3-({4-[3-(3-ethyl-1H-indazol-1-yl)-1,2,4-oxadiazol-5-yl]piperidin-1-yl}methyl)pyrrolidine-1-carboxylate], in assay [1], the IC50 is below 20 nM. In addition, in assay [2], the Emax was 49% and the EC50 stood at 31.4 nM.
As for `CCc1nn(-c2noc(C3CCN(C[C@H]4CCN(C(C)=O)C4)CC3)n2)c2cc(F)ccc12.Cl` [Example 205, 1-[(3R)-3-({4-[3-(3-ethyl-6-fluoro-1H-indazol-1-yl)-1,2,4-oxadiazol-5-yl]piperidin-1-yl}methyl)pyrrolidin-1-yl]ethanone hydrochloride], the “Alternation behavior (%)” value in assay [3] (compound 1 mg/kg) is 66.9^# %; in assay [3] (compound 3 mg/kg), 54.8%; in assay [3] (compound 10 mg/kg), 66.7^# %.
Consider `CCc1nn(-c2noc(C3CCN(C4CCN(C(C)=O)CC4)CC3)n2)c2cc(F)ccc12` [Example 228, 1-{4-[3-(3-ethyl-6-fluoro-1H-indazol-1-yl)-1,2,4-oxadiazol-5-yl]-1,4′-bipiperidin-1′-yl}ethanone hydrochloride], for which the IC50 in assay [1] turned out to be 28.7 nM. Further, in assay [2], the Emax came to 66% and the midpoint of the response, the EC50, lay at 8.2 nM.
In assay [1], `CCc1nn(-c2noc(C3CCN(C4CCN(C(C)=O)CC4)CC3)n2)c2c(F)cccc12` [Example 229, 1-{4-[3-(3-ethyl-7-fluoro-1H-indazol-1-yl)-1,2,4-oxadiazol-5-yl]-1,4′-bipiperidin-1′-yl}ethanone hydrochloride] returned an IC50 below 20 nM. For the same compound, in assay [2], the Emax turned out to be 55% and the EC50 came out at 2.9 nM.
For `CCc1nn(-c2noc(C3CCN(C4CCN(C(=O)OC)CC4)CC3)n2)c2cc(F)ccc12` [Example 230, methyl 4-[3-(3-ethyl-6-fluoro-1H-indazol-1-yl)-1,2,4-oxadiazol-5-yl]-1,4′-bipiperidine-1′-carboxylate], in that order: 25.1 nM, 65% and 17.9 nM.
`CCc1nn(-c2noc(C3CN(C4CCN(C(=O)OC)CC4)C3)n2)c2ccccc12` [Example 257, methyl 4-{3-[3-(3-ethyl-1H-indazol-1-yl)-1,2,4-oxadiazol-5-yl]azetidin-1-yl}piperidine-1-carboxylate] displayed a half-maximal inhibitory concentration (IC50) in assay [1] below 20 nM. In addition, in assay [2], the Emax stood at 48% and the EC50 turned out to be 60.7 nM.
For `CCc1nn(-c2noc(C3CCN(CCCO)CC3)n2)c2ccccc12` [Example 261, 3-{4-[3-(3-ethyl-1H-indazol-1-yl)-1,2,4-oxadiazol-5-yl]piperidin-1-yl}propan-1-ol], the IC50 in assay [1] was below 20 nM. Moreover, in assay [2], the Emax was 84% and the midpoint of the response, the EC50, lay at 6.2 nM.
